In PubChem BioAssay AID1745844 (Carcinogenic Potency Database (CPDB), 2022):
Several values for one entry are separate records, joined by “and”; a condition that tells them apart may be missing. Equal values may be shown once. Activity calls are given as the source filed them. No rule for the calls is given here.

Test system: rodent lifetime carcinogenesis bioassay, tumor incidence TD50
Assay: carcinogenic potency in animals, long-term in vivo studies, CPDB compilation (AID 1745844)
[1] = rat, strain Sprague-Dawley, females, by gavage, site: liver, lesion: hepatocellular carcinoma, dosed 52 weeks, study length 65 weeks

CC/C(=C(\c1ccccc1)c1ccc(OCCN(C)C)cc1)c1ccccc1
TD50 (mouse, strain AP Alderly Park, females, several routes, site: ovary, lesion: granulosa-cell adenoma, dosed 65 weeks, study length 65 weeks): 3 mg/kg/day | TD50 (mouse, strain AP Alderly Park, males, several routes, site: testis, lesion: interstitial-cell adenoma, dosed 65 weeks, study length 65 weeks): 8.18 mg/kg/day | TD50 (mouse, strain AP Alderly Park, males, several routes, site: testis, lesion: interstitial-cell tumor, dosed 56 weeks, study length 56 weeks): 9.8 mg/kg/day | TD50 (mouse, strain B6C3F1, females, in feed, site: liver, lesion: hepatocellular adenoma, dosed 104 weeks, study length 104 weeks): 101 mg/kg/day (inactive) | carcinogen call (mouse, strain B6C3F1, females, in feed, site: lung, lesion: alveolar-cell carcinoma, dosed 104 weeks, study length 104 weeks): negative (inactive) | carcinogen call (mouse, strain B6C3F1, females, in feed, site: uterus, lesion: leiomyoma, dosed 104 weeks, study length 104 weeks): negative (inactive) | carcinogen call (mouse, strain C57BL/6, females, in feed, site: liver, lesion: hepatocellular carcinoma, dosed 52 weeks, study length 52 weeks): negative (inactive) | carcinogen call (mouse, strain DBA/2, females, in feed, site: liver, lesion: hepatocellular carcinoma, dosed 52 weeks, study length 52 weeks): negative (inactive) | TD50 (rat, strain Alpk:APfSD, females, by gavage, site: liver, lesion: biliary cystadenoma, dosed 88 weeks, study length 107 weeks): 706 mg/kg/day | TD50 (rat, strain Alpk:APfSD, females, by gavage, site: liver, lesion: cholangioma, dosed 88 weeks, study length 107 weeks): 2260 mg/kg/day | TD50 (rat, strain Alpk:APfSD, females, by gavage, site: liver, lesion: hepatocellular adenoma, dosed 88 weeks, study length 107 weeks): 135 mg/kg/day | TD50 (rat, strain Alpk:APfSD, females, by gavage, site: liver, lesion: hepatocellular carcinoma, dosed 88 weeks, study length 107 weeks): 17 mg/kg/day | TD50 (rat, strain Alpk:APfSD, females, by gavage, site: liver, lesion: hepatocholangiocarcinoma, dosed 88 weeks, study length 107 weeks): 241 mg/kg/day | TD50 (rat, strain Alpk:APfSD, males, by gavage, site: liver, lesion: biliary cystadenoma, dosed 88 weeks, study length 107 weeks): 1100 mg/kg/day | TD50 (rat, strain Alpk:APfSD, males, by gavage, site: liver, lesion: hepatocellular adenoma, dosed 88 weeks, study length 107 weeks): 47.9 mg/kg/day | TD50 (rat, strain Alpk:APfSD, males, by gavage, site: liver, lesion: hepatocellular carcinoma, dosed 88 weeks, study length 107 weeks): 18.7 mg/kg/day | TD50 (rat, strain Alpk:APfSD, males, by gavage, site: liver, lesion: hepatocholangiocarcinoma, dosed 88 weeks, study length 107 weeks): 306 mg/kg/day | TD50 (rat, strain Charles River CD (Sprague-Dawley), females, by gavage, site: liver, lesion: hepatocellular adenoma, dosed 51 weeks, study length 65 weeks): 7.77 mg/kg/day | TD50 (rat, strain Charles River CD (Sprague-Dawley), females, by gavage, site: liver, lesion: hepatocellular adenoma, dosed 52 weeks, study length 65 weeks): 4.35 mg/kg/day | TD50 (rat, strain Charles River CD (Sprague-Dawley), females, by gavage, site: liver, lesion: hepatocellular carcinoma, dosed 51 weeks, study length 65 weeks): 7.77 mg/kg/day | TD50 (rat, strain Charles River CD (Sprague-Dawley), females, by gavage, site: liver, lesion: hepatocellular carcinoma, dosed 52 weeks, study length 52 weeks): 2.12 mg/kg/day and 10.3 mg/kg/day | TD50 (rat, strain Charles River CD (Sprague-Dawley), females, by gavage, site: liver, lesion: hepatocellular carcinoma, dosed 52 weeks, study length 65 weeks): 4.62 mg/kg/day | TD50 (rat, strain Charles River CD (Sprague-Dawley), females, by gavage, site: liver, lesion: several types, types named in the paper, dosed 52 weeks, study length 52 weeks): 1.44 mg/kg/day | TD50 (rat, strain Charles River CD (Sprague-Dawley), females, by gavage, site: liver, lesion: several types, types named in the paper, dosed 52 weeks, study length 65 weeks): 3.86 mg/kg/day | TD50 (rat, strain Fischer 344/Tox, females, in feed, site: liver, lesion: hepatocellular carcinoma, dosed 86 weeks, study length 86 weeks): 4.18 mg/kg/day | TD50 (rat, strain Lewis, females, in feed, site: liver, lesion: hepatocellular carcinoma, dosed 48 weeks, study length 48 weeks): 1.38 mg/kg/day | TD50 (rat, strain Sprague-Dawley, females, by gavage, site: any site (literature study), lesion: malignant tumor, dosed 167 weeks, study length 167 weeks): 88.7 mg/kg/day | TD50 (rat, strain Sprague-Dawley, females, by gavage, site: liver, lesion: hepatocellular adenoma, dosed 167 weeks, study length 167 weeks): 497 mg/kg/day | TD50 (rat, strain Sprague-Dawley, females, by gavage, site: liver, lesion: hepatocellular carcinoma, dosed 52 weeks, study length 52 weeks): 11.8 mg/kg/day and 7.56 mg/kg/day and 4.79 mg/kg/day | TD50 [1]: 18.9 mg/kg/day and 6 mg/kg/day | carcinogen call [1]: positive | TD50 (rat, strain Sprague-Dawley, females, by gavage, site: liver, lesion: hepatocellular carcinoma, dosed 167 weeks, study length 167 weeks): 164 mg/kg/day | carcinogen call (rat, strain Sprague-Dawley, females, by gavage, site: liver, lesion: several types, types named in the paper, dosed 52 weeks, study length 52 weeks): positive | TD50 (rat, strain Sprague-Dawley, females, by gavage, site: uterus, lesion: fibroma, dosed 167 weeks, study length 167 weeks): 247 mg/kg/day | TD50 (rat, strain Sprague-Dawley, females, by gavage, site: uterus, lesion: sarcoma, dosed 167 weeks, study length 167 weeks): 487 mg/kg/day | TD50 (rat, strain Sprague-Dawley, females, by gavage, site: uterus, lesion: squamous-cell carcinoma, dosed 167 weeks, study length 167 weeks): 497 mg/kg/day | TD50 (rat, strain Sprague-Dawley, females, by gavage, site: vagina, lesion: squamous-cell carcinoma, dosed 167 weeks, study length 167 weeks): 497 mg/kg/day | TD50 (rat, strain Sprague-Dawley, males, by gavage, site: any site (literature study), lesion: malignant tumor, dosed 167 weeks, study length 167 weeks): 187 mg/kg/day | TD50 (rat, strain Sprague-Dawley, males, by gavage, site: liver, lesion: hepatocellular adenoma, dosed 167 weeks, study length 167 weeks): 497 mg/kg/day | TD50 (rat, strain Sprague-Dawley, males, by gavage, site: liver, lesion: hepatocellular carcinoma, dosed 167 weeks, study length 167 weeks): 247 mg/kg/day | TD50 (rat, strain Sprague-Dawley, males, by gavage, site: mammary tissue, wider than the gland, lesion: adenocarcinoma, dosed 167 weeks, study length 167 weeks): 247 mg/kg/day | TD50 (rat, strain Sprague-Dawley, males, by gavage, site: mammary tissue, wider than the gland, lesion: benign tumor, dosed 167 weeks, study length 167 weeks): 96.4 mg/kg/day | TD50 (rat, strain Wistar/LAC-P, females, in feed, site: liver, lesion: hepatocellular carcinoma, dosed 49 weeks, study length 49 weeks): 1.36 mg/kg/day

Brc1cc(-c2ccc(Br)c(Br)c2Br)cc(Br)c1Br
TD50 (rat, strain Sprague-Dawley Spartan, females, in feed, site: any site (literature study), lesion: several types, types named in the paper, dosed 57 weeks, study length 57 weeks): 5.91 mg/kg/day (inactive) | carcinogen call (rat, strain Sprague-Dawley Spartan, females, in feed, site: liver, lesion: one or several types, types not named, dosed 57 weeks, study length 57 weeks): negative (inactive)

COc1cc(CNC(=O)CCCC/C=C/C(C)C)ccc1O
carcinogen call (mouse, strain B6C3F1, females, in feed, site: any site (literature study), lesion: several types, types named in the paper, dosed 79 weeks, study length 83 weeks): negative (inactive) | carcinogen call (mouse, strain B6C3F1, females, in feed, site: liver, lesion: several types, types named in the paper, dosed 79 weeks, study length 83 weeks): negative (inactive) | carcinogen call (mouse, strain B6C3F1, females, in feed, site: lung, lesion: adenoma, dosed 79 weeks, study length 83 weeks): negative (inactive) | TD50 (mouse, strain B6C3F1, males, in feed, site: any site (literature study), lesion: several types, types named in the paper, dosed 79 weeks, study length 83 weeks): 2040 mg/kg/day (inactive) | carcinogen call (mouse, strain B6C3F1, males, in feed, site: liver, lesion: several types, types named in the paper, dosed 79 weeks, study length 83 weeks): negative (inactive) | TD50 (mouse, strain B6C3F1, males, in feed, site: lung, lesion: adenoma, dosed 79 weeks, study length 83 weeks): 16100 mg/kg/day (inactive) | TD50 (mouse, strain Swiss albino, females, in feed, site: cecum, lesion: polypoid adenoma, dosed 152 weeks, study length 152 weeks): 167 mg/kg/day | TD50 (mouse, strain Swiss albino, females, in feed, site: duodenum, lesion: adenocarcinoma, dosed 152 weeks, study length 152 weeks): 2310 mg/kg/day | TD50 (mouse, strain Swiss albino, females, in feed, site: lung, lesion: adenoma, dosed 152 weeks, study length 152 weeks): 225 mg/kg/day | TD50 (mouse, strain Swiss albino, females, in feed, site: lung, lesion: several types, types named in the paper, dosed 152 weeks, study length 152 weeks): 1080 mg/kg/day | carcinogen call (mouse, strain Swiss albino, males, in feed, site: cecum, lesion: polypoid adenoma, dosed 124 weeks, study length 124 weeks): positive | TD50 (mouse, strain Swiss albino, males, in feed, site: duodenum, lesion: several types, types named in the paper, dosed 124 weeks, study length 124 weeks): 404 mg/kg/day

OB(O)O
carcinogen call (mouse, strain B6C3F1, females, in feed, site: any site (literature study), lesion: several types, types named in the paper, dosed 103 weeks, study length 105 weeks): negative (inactive) | TD50 (mouse, strain B6C3F1, females, in feed, site: liver, lesion: hepatocellular adenoma + hepatocellular carcinoma + neoplastic nodule, dosed 103 weeks, study length 105 weeks): 31000 mg/kg/day | TD50 (mouse, strain B6C3F1, females, in feed, site: lung, lesion: alveolar/bronchiolar adenoma + alveolar/bronchiolar carcinoma, dosed 103 weeks, study length 105 weeks): 4190 mg/kg/day | TD50 (mouse, strain B6C3F1, males, in feed, site: any site (literature study), lesion: several types, types named in the paper, dosed 103 weeks, study length 105 weeks): 500 mg/kg/day | TD50 (mouse, strain B6C3F1, males, in feed, site: liver, lesion: hepatocellular adenoma + hepatocellular carcinoma + neoplastic nodule, dosed 103 weeks, study length 105 weeks): 638 mg/kg/day | TD50 (mouse, strain B6C3F1, males, in feed, site: liver, lesion: hepatocellular adenoma + hepatocellular carcinoma, dosed 103 weeks, study length 105 weeks): 638 mg/kg/day (inactive) | TD50 (mouse, strain B6C3F1, males, in feed, site: liver, lesion: hepatocellular carcinoma, dosed 103 weeks, study length 105 weeks): 1120 mg/kg/day | TD50 (mouse, strain B6C3F1, males, in feed, site: lung, lesion: alveolar/bronchiolar adenoma + alveolar/bronchiolar carcinoma, dosed 103 weeks, study length 105 weeks): 38600 mg/kg/day | TD50 (mouse, strain B6C3F1, males, in feed, site: subcutaneous tissue, lesion: fibrosarcoma + fibroma + neurofibrosarcoma + sarcoma, NOS, dosed 103 weeks, study length 105 weeks): 706 mg/kg/day | TD50 (mouse, strain B6C3F1, males, in feed, site: subcutaneous tissue, lesion: fibrosarcoma + neurofibrosarcoma + sarcoma, NOS, dosed 103 weeks, study length 105 weeks): 1070 mg/kg/day

Nc1ccc([N+](=O)[O-])cc1O
TD50 (mouse, strain B6C3F1, females, by gavage, site: any site (literature study), lesion: several types, types named in the paper, dosed 103 weeks, study length 104 weeks): 5760 mg/kg/day (inactive) | TD50 (mouse, strain B6C3F1, females, by gavage, site: lung, lesion: alveolar/bronchiolar adenoma + alveolar/bronchiolar carcinoma, dosed 103 weeks, study length 104 weeks): 807000 mg/kg/day | carcinogen call (mouse, strain B6C3F1, males, by gavage, site: any site (literature study), lesion: several types, types named in the paper, dosed 103 weeks, study length 104 weeks): negative (inactive) | carcinogen call (rat, strain Fischer 344, females, by gavage, site: any site (literature study), lesion: several types, types named in the paper, dosed 103 weeks, study length 104 weeks): negative (inactive) | TD50 (rat, strain Fischer 344, males, by gavage, site: adrenal medulla, lesion: pheochromocytoma + pheochromocytoma, malignant, dosed 103 weeks, study length 104 weeks): 101 mg/kg/day | TD50 (rat, strain Fischer 344, males, by gavage, site: any site (literature study), lesion: several types, types named in the paper, dosed 103 weeks, study length 104 weeks): 33.6 mg/kg/day | TD50 (rat, strain Fischer 344, males, by gavage, site: liver, lesion: hepatocellular adenoma + hepatocellular carcinoma + neoplastic nodule, dosed 103 weeks, study length 104 weeks): 1560 mg/kg/day | TD50 (rat, strain Fischer 344, males, by gavage, site: pancreas, lesion: acinar-cell adenoma, dosed 103 weeks, study length 104 weeks): 111 mg/kg/day | TD50 (rat, strain Fischer 344, males, by gavage, site: pancreas, lesion: acinar-cell carcinoma + acinar-cell adenoma, dosed 103 weeks, study length 104 weeks): 107 mg/kg/day | TD50 (rat, strain Fischer 344, males, by gavage, site: pancreatic islets, lesion: islet-cell carcinoma, dosed 103 weeks, study length 104 weeks): 393 mg/kg/day | TD50 (rat, strain Fischer 344, males, by gavage, site: preputial gland, lesion: adenoma, NOS + carcinoma, NOS, dosed 103 weeks, study length 104 weeks): 392 mg/kg/day | TD50 (rat, strain Fischer 344, males, by gavage, site: preputial gland, lesion: carcinoma, NOS, dosed 103 weeks, study length 104 weeks): 562 mg/kg/day | TD50 (rat, strain Fischer 344, males, by gavage, site: testis, lesion: interstitial-cell tumor, dosed 103 weeks, study length 104 weeks): 28.6 mg/kg/day

CN(C#N)N=O
TD50 (rat, strain Sprague-Dawley, females, in drinking water, site: forestomach, lesion: carcinoma, dosed 60 weeks, study length 95 weeks): 1.17 mg/kg/day | TD50 (rat, strain Sprague-Dawley, females, in drinking water, site: forestomach, lesion: several types, types named in the paper, dosed 60 weeks, study length 95 weeks): 0.48 mg/kg/day

CC(=O)N[C@@H](CS)C(=O)O
carcinogen call (rat, strain Fischer 344, males, in feed, site: liver, lesion: several types, types named in the paper, dosed 98 weeks, study length 98 weeks): negative (inactive)
